According to patent publication US20250223281A1, “ANTIDIABETIC COMPOUNDS AND COMPOSITIONS” (REZUBIO PHARMACEUTICALS CO., LTD, priority 2022, published 2025):

Molecular target: T1, GPR40 (Homo sapiens, UniProt O14842)
T1 construct: expressed in transfected cells; host or cells: HEK293 cells stably expressing GPR40 (Hygromycin selection)
Assay: IP1 accumulation assay in HEK293 cells stably expressing GPR40
Assay type: cell-based
Experimental: IP1 accumulation assay was used to evaluate the potency of compounds. HEK293 cells stably expressing GPR40 were cultured in 5% CO2 incubator (ThermoFisher) in maintenance media (Dulbecco's modified Eagle's medium with 4.5 g/L of glucose, 10% fetal bovine serum, 100 μg/mL Hygromycin, and Penicillin (100 U/mL)/Streptomycin (100 μg/mL)) till 100% confluency. Cells were harvested freshly, spun down at 300×g for 5 min, and resuspended in pre-warmed 1× stimulant buffer from Cisbio IP-One HTRF Detection kit (Cisbio). Cell density was adjusted to 2.0×10^6 cells/mL. DMSO was used as blank control and AMG-1638 (CAS #: 1142214-62-7) as positive control. Compounds were prepared at 10 mM in DMSO and 5 nL of 3× serially diluted compounds (10 concentrations) were added to each well of the 384-LDV assay plate (Corning) by using ECHO 550 (Labcyte). Five μL of cells in suspension were transferred into each well by using Multidrop Combi Reagent Dispenser (ThermoFisher). Assay plate was then sealed and incubated at 37° C. for 2 hours. IP-d2 reagent and anti-IP1 reagent were prepared following the manual (Cisbio). Five μL of IP1-d2 and then 5 μL of anti-IP1 antibody was added to each well sequentially. Assay plate was incubated at room temperature for 60 min and then read at 665 nm/615 nm on an Envision plate reader (PerkinElmer). The ratio of values obtained at 665 nm and 615 nm was used for calculation of IP1 accumulation: % Effect=(Ratiosample−Ratioblank)/(RatioAMG-1638−Ratioblank)×100. Dose curve was fitted and EC50 of each compound was calculated by using XLFit.

[1] = IP1 accumulation, HEK293 cells stably expressing GPR40, 2 hours at 37° C., % effect relative to AMG-1638, table of Biological Example 1
[2] = Tables A-1a to A-7b (structure-property relationship), obtained by methods of Biological Example 1

T1 sequence (O14842 whole entry): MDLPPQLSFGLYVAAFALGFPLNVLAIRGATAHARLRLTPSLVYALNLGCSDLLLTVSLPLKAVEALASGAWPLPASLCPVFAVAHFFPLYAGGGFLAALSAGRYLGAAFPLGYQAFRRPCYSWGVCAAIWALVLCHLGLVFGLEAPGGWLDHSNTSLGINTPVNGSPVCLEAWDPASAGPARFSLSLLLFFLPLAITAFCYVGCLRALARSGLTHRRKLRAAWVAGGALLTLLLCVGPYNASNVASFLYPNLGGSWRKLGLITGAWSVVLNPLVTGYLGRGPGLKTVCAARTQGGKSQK

SMILES | EC50 [1] [nM] | EC50 [2] [nM]
C[C@H](C(=O)O)[C@H](c1ccc2c(c1)O[C@@H](C1CCN(Cc3cc(-c4cn(CCCCCCCCCCCC(=O)NCCN(CCC(=O)NCCN)CCC(=O)NCCN)nn4)ccc3OC(F)(F)F)CC1)CC2)C1CC1 [Example 36] | 403 | 403
COc1ccc(F)c(-c2ccc(COc3cccc([C@@H](CC(=O)O)C4CC4)c3)cc2CC(C)(C)Cn2cc(CCCCCCCCCCCCCCCCCC(=O)NCC[N+](C)(C)C)nn2)c1 [Example 38] | 5.42 | 
C[C@H](C(=O)O)[C@H](c1ccc2c(c1)O[C@@H](C1CCN(Cc3cc(-c4cn(CCCCCCCCCCCCCCCC(=O)NCCN(CCC(=O)NCCN)CCC(=O)NCCN)nn4)ccc3OC(F)(F)F)CC1)CC2)C1CC1 [Example 39] | 0.83 | 0.83
COc1ccc(F)c(-c2ccc(COc3cccc([C@@H](CC(=O)O)C4CC4)c3)cc2C(C)(C)c2cn(CCCCCCCCCCCCCCCC(=O)NCCN(CCC(=O)NCCN)CCC(=O)NCCN)nn2)c1 [Example 40] | 25.3 | 
COc1ccc(C(=O)N(CC(C)(C)CCCCCCn2cc(CCCCCCCCCCCCCCCCCC(=O)NCC[N+](C)(CCC(=O)NCCN)CCC(=O)NCCN)nn2)c2cccc(C)n2)c(N2CCC(COc3cc([C@@H](CC(=O)O)C4CC4)ccn3)CC2)c1 [Example 42] | 0.29 | 
COc1ccc(C(=O)N(CC(C)(C)CCCCCCn2cc(CCCCCCCCCCCCC(=O)NCC[N+](C)(CCC(=O)NCCN)CCC(=O)NCCN)nn2)c2cccc(C)n2)c(N2CCC(COc3cc([C@@H](CC(=O)O)C4CC4)ccn3)CC2)c1 [Example 43] | 0.21 | 0.21
COc1ccc(C(=O)N(CC(C)(C)CCCCCCn2cc(CCCCCCCCCCCCCCCCCC(=O)NCC[N+](C)(C)C)nn2)c2cccc(C)n2)c(N2CCC(COc3cc([C@@H](CC(=O)O)C4CC4)ccn3)CC2)c1 [Example 44] | 1.74 | 
C[C@H](C(=O)O)[C@H](c1ccc2c(c1)O[C@@H](C1CN(Cc3cc(-c4cn(CCCCCCCCCCCCCCCCCC(=O)NCC[N+](C)(CCC(=O)NCCN)CCC(=O)NCCN)nn4)ccc3OC(F)(F)F)C1)CC2)C1CC1 [Example 45] | 0.68 | 
C[C@H](C(=O)O)[C@H](c1ccc2c(c1)O[C@@H](C1CCN(Cc3cc(-c4cn(CCCCCCCCCCCCCCCCCC(=O)NCC[N+](C)(C)CCCS(=O)(=O)[O-])nn4)ccc3OC(F)(F)F)CC1)CC2)C1CC1 [Example 46] | 2.03 | 
COc1ccc(F)c(-c2ccc(COc3cccc([C@@H](CC(=O)O)C4CC4)c3)cc2C(C)(C)c2cn(CCCCCCCCCCCCCCC(=O)NCCN(CCC(=O)NCCN)CCC(=O)NCCN)nn2)c1 [Example 47] | 117 | 
COc1ccc(F)c(-c2ccc(COc3cccc([C@@H](CC(=O)O)C4CC4)c3)cc2CC(C)(C)Cn2cc(CCCCCCCCCCCCCCCCCC(=O)NCC[N+](C)(C)CCCS(=O)(=O)[O-])nn2)c1 [Example 48] | 4.7 | 
COc1ccc(F)c(-c2ccc(COc3cccc([C@@H](CC(=O)O)C4CC4)c3)cc2CC(C)(C)Cn2cc(CCCCCCCCCCCCCCC(=O)NCCN(CCC(=O)NCCN)CCC(=O)NCCN)nn2)c1 [Example 49] | 19.9 | 19.9
C[C@H](C(=O)O)[C@H](c1ccc2c(c1)O[C@@H](C1CCN(Cc3cc(-c4cn(CCCCCCCCCCCCCCCCCCN(C)CCOCCOCCOCCOCCN5C[C@H](O)[C@@H](O)[C@H](O)[C@H]5CO)nn4)ccc3OC(F)(F)F)CC1)CC2)C1CC1 [Example 50] | 8.46 | 
COc1ccc(F)c(-c2ccc(COc3cccc([C@@H](CC(=O)O)C4CC4)c3)cc2C(C)(C)c2cn(CCCCCCCCCCCCCCC(=O)NCC[N+](C)(CCC(=O)NCCN)CCC(=O)NCCN)nn2)c1 [Example 51] | 318 | 
COc1ccc(F)c(-c2ccc(COc3cccc([C@@H](CC(=O)O)C4CC4)c3)cc2CC(C)(C)Cc2cn(CCCCCCCCCCCCCCC(=O)NCCN(CCC(=O)NCCN)CCC(=O)NCCN)nn2)c1 [Example 52] | 26 | 26
COc1ccc(C(=O)N(CC(C)(C)CCCCCCn2cc(CCCCCCCCC(=O)NCC[N+](C)(CCC(=O)NCCN)CCC(=O)NCCN)nn2)c2cccc(C)n2)c(N2CCC(COc3cc([C@@H](CC(=O)O)C4CC4)ccn3)CC2)c1 [Example 53] | 3.18 | 3.81

SMILES | EC50 [1] [nM] | EC50 [2] [nM]
COc1ccc(C(=O)N(CC(C)(C)CCCCCCn2cc(CCCCCCCCCCC(=O)NCC[N+](C)(CCC(=O)NCCN)CCC(=O)NCCN)nn2)c2cccc(C)n2)c(N2CCC(COc3cc([C@@H](CC(=O)O)C4CC4)ccn3)CC2)c1 [Example 54] | 1.71 | 1.71
COc1ccc(F)c(-c2ccc(COc3cccc([C@@H](CC(=O)O)C4CC4)c3)cc2CC(C)(C)Cn2cc(CCCCCCCCCCCCCC(=O)NCCN(CCC(=O)NCCN)CCC(=O)NCCN)nn2)c1 [Example 55] | 138 | 138
COc1ccc(F)c(-c2ccc(COc3cccc([C@@H](CC(=O)O)C4CC4)c3)cc2CC(C)(C)Cn2cc(CCCCCCCCCCC(=O)NCCN(CCC(=O)NCCN)CCC(=O)NCCN)nn2)c1 [Example 56] | 1760 | 1760
COc1ccc(F)c(-c2ccc(COc3cccc([C@@H](CC(=O)O)C4CC4)c3)cc2CC(C)(C)Cn2cc(CCCCCCCCCCCCCC(=O)NCC[N+](C)(CCC(=O)NCCN)CCC(=O)NCCN)nn2)c1 [Example 57] | 63.1 | 93.1
COc1ccc(F)c(-c2ccc(COc3cccc([C@@H](CC(=O)O)C4CC4)c3)cc2CC(C)(C)Cn2cc(CCCCCCCCCCCCCCC(=O)NCC[N+](C)(CCC(=O)NCCN)CCC(=O)NCCN)nn2)c1 [Example 58] | 36.5 | 8.14
COc1ccc(F)c(-c2ccc(COc3cccc([C@@H](CC(=O)O)C4CC4)c3)cc2CC(C)(C)Cn2cc(CCCCCCCCCCC(=O)NCC[N+](C)(CCC(=O)NCCN)CCC(=O)NCCN)nn2)c1 [Example 59] | 1260 | 1260
COc1ccc(C(=O)N(CC(C)(C)CCCCCCn2cc(CCCCCCCCCCCCC(=O)NCCN(CC(=O)NCCN)CC(=O)NCCN)nn2)c2cccc(C)n2)c(N2CCC(COc3cc([C@@H](CC(=O)O)C4CC4)ccn3)CC2)c1 [Example 60] | 0.44 | 
COc1ccc(C(=O)N(CC(C)(C)CCCCCCn2cc(CCCCCCCCCCCCC(=O)NCC[N+](C)(CC(=O)NCCN)CC(=O)NCCN)nn2)c2cccc(C)n2)c(N2CCC(COc3cc([C@@H](CC(=O)O)C4CC4)ccn3)CC2)c1 [Example 61] | 0.23 | 
COc1ccc(C(=O)N(CC(C)(C)CCCCCCCCCCCCCCCCCCCC(=O)NCCN(CC(=O)NCCN)CC(=O)NCCN)c2cccc(C)n2)c(N2CCC(COc3cc([C@@H](CC(=O)O)C4CC4)ccn3)CC2)c1 [Example 64] | 0.68 | 
COc1ccc(C(=O)N(CC(C)(C)CCCCCCCCCCCCCCCCCCCC(=O)NCC[N+](C)(CCC(=O)NCCN)CCC(=O)NCCN)c2cccc(C)n2)c(N2CCC(COc3cc([C@@H](CC(=O)O)C4CC4)ccn3)CC2)c1 [Example 65, (S)-3-((2-aminoethyl)amino)-N-(3-((2-aminoethyl)amino)-3-oxopropyl)-N-(2-(22-(2-(4-(((4-(2-carboxy-1-cyclopropylethyl)pyridin-2-yl)oxy)methyl)piperidin-1-yl)-4-methoxy-N-(6-methylpyridin-2-yl)benzamido)-21,21-dimethyldocosanamido)ethyl)-N-methyl-3-oxopropan-1-aminium chloride] | 0.28 | 
C[C@H](C(=O)O)[C@H](c1ccc2c(c1)O[C@@H](C1CCN(Cc3cc(-n4cc(CCCCCCCCCCCCCCCCCC(=O)NCC[N+](C)(C)CCCS(=O)(=O)[O-])nn4)ccc3OC(F)(F)F)CC1)CC2)C1CC1 [Example 66] | 0.49 | 
COc1ccc(C(=O)N(CC(C)(C)CCCCCCCCCCCCCCCCCCCC(=O)NCC[N+](C)(CC(=O)NCCN)CC(=O)NCCN)c2cccc(C)n2)c(N2CCC(COc3cc([C@@H](CC(=O)O)C4CC4)ccn3)CC2)c1 [Example 67] | 0.38 | 
COc1ccc(C(=O)N(CC(C)(C)CCCCCCn2cc(CCCCCCCCCCC(=O)NCCN(CCC(=O)NCCN)CCC(=O)NCCN)nn2)c2cccc(C)n2)c(N2CCC(COc3cc([C@@H](CC(=O)O)C4CC4)ccn3)CC2)c1 [Example 68] | 1 | 1.79
C[C@H](C(=O)O)[C@H](c1ccc2c(c1)O[C@@H](C1CCN(Cc3cc(-n4cc(CCCCCCCCCCCCCCCCCC(=O)NCC[N+](C)(C)C)nn4)ccc3OC(F)(F)F)CC1)CC2)C1CC1 [Example 70] | 0.43 | 
C[C@H](C(=O)O)[C@H](c1ccc2c(c1)O[C@@H](C1CCN(Cc3cc(-n4cc(CCCCCCCCCCCCCCC(=O)NCC[N+](C)(CCC(=O)NCCN)CCC(=O)NCCN)nn4)ccc3OC(F)(F)F)CC1)CC2)C1CC1 [Example 72] | 6.74 | 6.74
COc1ccc(C(=O)N(CC(C)(C)CCCCCCn2cc(CCCCCCCCCCCCCCCCCC(=O)NCC[N+](C)(C)CCCS(=O)(=O)[O-])nn2)c2cccc(C)n2)c(N2CCC(COc3cc([C@@H](CC(=O)O)C4CC4)ccn3)CC2)c1 [Example 73] | 0.1 | 
